Laboratory results: patent US8183409B2, “High yield and rapid synthesis methods for producing metallo-organic salts” (Osteologix A/S, priority 2004, dated 2012)

Conditions: pH 7.5

O=C([O-])/C=C\C(=O)[O-].[Sr+2] [Maleate, strontium maleate]
solubility in buffered solution compared with pure water: decreased solubility
